US8669054B2, “Marker for gastric cancer and method for detecting gastric cancer” (The Chinese University of Hong Kong, priority 2010, dated 2014)

Tested on: PAX5 gene expression in methylated GC and CRC cell lines
Assay: Demethylation treatment with 5-Aza; PAX5 expression by semiquantitative RT-PCR
Type: cell-based, human
Settings: 2 μM 5-Aza for 5 days; AGS, MKN28, KatoIII, HCT116, SW620 and SW480
Protocol: Semiquantitative RT-PCR was performed in a total volume of 25 μL reaction containing GeneAmp 1×PCR Buffer II (Applied Biosystems), 2.5 mM MgCl2, 200 μM each of dNTP, 200 nM each of primers, 0.5 U of AmpliTaq Gold DNA polymerase (Applied Biosystems) and 30˜50 ng cDNA. […] The PCR bands were visualized under ultraviolet light and photographed. The expression of the target gene was normalized by the expression of house keeping gene β-actin, which served as an internal control. […] Cells were then treated with 2 μM 5-aza-2′-deoxycytidine (“5-Aza”) (Sigma-Aldrich) for 5 days. The 5-Aza was replenished every day.

Compound: Nc1ncn([C@H]2C[C@H](O)[C@@H](CO)O2)c(=O)n1 [5-Aza, 5-aza-2′-deoxycytidine]
- PAX5 gene expression after 5-Aza demethylation treatment (RT-PCR): restore expression
